Data taken from patent US8026110B2, “Combinatorial rosamine library and uses thereof” (New York University, priority 2006, dated 2011).
“Also recorded” adds a separate entry of the source.

System: DNA
Assay: Screening of rosamine library toward 47 analytes: DNA
Format: binding
Details: screen of 47 analytes, duplicated, FIG. 10B
Description: The rosamine derivative compounds were screened toward 47 different analytes that include proteins, polysaccharides, nucleic acids, and metal ions. The stock solution of each dye (50 μL) in HEPES (20 mM, pH=7.4) or PBS (20 mM, pH=7.4) was prepared, and diluted with the each analyte (50 μL, 1.0 mg/mL or 200 μM) in the same buffer solution. The final dye concentration varied from 0.5 μM to 10 μM. The fluorescence intensity fold changes of each dye in the presence of analytes were calculated by comparing the fluorescence intensity at the maximum emission wavelength with/without the analyte.

CCN(CCCN(C)C)c1ccc2c(=O)c3ccc(N)cc3oc2c1 [L, 3-Amino-6-[(3-dimethylamino-propyl)-ethyl-amino]-xanthen-9-one]
fluorescence response to DNA: selective response; also recorded: selective increase of fluorescence intensity
